Measured values as given in article PMC4949556, “Subtle Structural Differences Trigger Inhibitory Activity of Propafenone Analogues at the Two Polyspecific ABC Transporters: P‐Glycoprotein (P‐gp) and Breast Cancer Resistance Protein (BCRP)” (Chemmedchem, 2016).

Assays:
Type in all cases: cell-based
BCRP = target: T1, BCRP (Homo sapiens, UniProt Q9UNQ0); experiment: BCRP inhibition: steady-state mitoxantrone accumulation in BCRP-expressing PLB985 cells (flow cytometry)
T1 construct: expressed in transfected cells; host or cells: PLB985 human myeloid leukemia cells stably expressing BCRP (gift of B. Sarkadi and K. Nemet, Budapest)
T1 sequence (Q9UNQ0 whole entry): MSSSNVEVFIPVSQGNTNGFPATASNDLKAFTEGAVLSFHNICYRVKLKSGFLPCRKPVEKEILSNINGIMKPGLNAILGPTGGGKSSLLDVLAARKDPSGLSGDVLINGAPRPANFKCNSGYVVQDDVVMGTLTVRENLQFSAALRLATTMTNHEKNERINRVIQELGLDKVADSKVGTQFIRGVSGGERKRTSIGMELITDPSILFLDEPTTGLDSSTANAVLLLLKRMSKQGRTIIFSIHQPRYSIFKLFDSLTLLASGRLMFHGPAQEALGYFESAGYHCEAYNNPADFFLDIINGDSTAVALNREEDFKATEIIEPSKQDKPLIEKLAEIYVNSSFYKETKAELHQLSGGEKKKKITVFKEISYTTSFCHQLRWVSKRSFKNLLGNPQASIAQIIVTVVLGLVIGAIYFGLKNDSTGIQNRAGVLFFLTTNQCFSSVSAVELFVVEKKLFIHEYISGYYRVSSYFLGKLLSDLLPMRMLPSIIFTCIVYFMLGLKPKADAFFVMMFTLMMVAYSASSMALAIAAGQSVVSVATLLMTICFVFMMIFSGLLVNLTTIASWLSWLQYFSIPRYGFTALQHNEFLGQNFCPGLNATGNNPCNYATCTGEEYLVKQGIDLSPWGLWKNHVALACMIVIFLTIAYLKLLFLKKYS
Method: (§1) P‐gp and BCRP inhibitory activity was assessed by implementing an intracellular accumulation assay of daunorubicin or mitoxantrone in cells overexpressing P‐gp or BCRP, respectively. In a first run, the effect of compounds 5, 6, 10, 11, and 16 (Figure 2) at 100 μM final concentration was tested (Figure 3). All compounds showing an inhibitory effect of more than 50 % compared with full inhibition by the known inhibitors of P‐gp (verapamil) and BCRP (Ko143) were further processed, and IC50 values were determined (IC50 curves and Hill coefficients are available in Figure S1 and Table S3 in the Supporting Information). […] For P‐gp, nine compounds were classified as inhibitors (5 a, 5 b, 6 a, 10 a, 10 b, 11 b, 16 a, 16 b, 16 c).
(§2) Cell culture: The human myeloid leukemia PLB985 parental and stably expressing BCRP cell lines31 were kindly provided by B. Sarkadi (Institute of Enzymology, Research Centre for Natural Sciences, Budapest, Hungary) and K. Nemet (Creative Cell Ltd., Budapest, Hungary). Both cell lines were cultured in RPMI 1640 supplemented with 10 % FBS and 100 IU mL^−1 of penicillin and streptomycin. The human T‐lymphoblast cell line CCRF VCR1000, overexpressing P‐gp, was obtained by stepwise selection of CCRF‐CEM in vincristine‐containing medium32 and was kindly provided by V. Gekeler (Altana‐Pharma formerly Byk‐Gulden, Konstanz, Germany). CCRF VCR1000 cells were cultured in RPMI 1640 medium containing 20 % FBS and were treated regularly with vincristine (1 μg mL^−1) for about 72 h, followed by centrifugation (300 g, 5 min, RT) and resuspension in normal culture medium. All cell lines were maintained at 37 °C in an atmosphere containing 5 % CO2 with 95 % relative humidity.
(§3) Steady‐state accumulation experiments: For BCRP and P‐gp inhibition studies, the steady‐state accumulation of mitoxantrone (7 μM) and daunorubicin (3 μM), respectively, was performed as previously described.33 Briefly, cells were harvested, pelleted (300 g, 5 min, 4 °C), diluted to a concentration of 12×10^6 cells mL^−1 in HPMI (10 mM Hepes, 120 mM NaCl, 5 mM KCl, 0.4 mM MgCl2, 0.04 mM CaCl2, 10 mM glucose, 10 mM NaHCO3, 5 mM Na2HPO4, pH 7.4 with NaOH) and kept on ice for further processing. For each data point, the cell suspension (25 μL) was preincubated for 5 min at 37 °C with 2 % DMSO (25 μL) in HPMI alone (DMSO control) or containing different concentrations of test compound solutions. Thereafter, cells were preloaded with daunorubicin (50 μL) or mitoxantrone (50 μL) for 30 or 20 min at 37 °C, respectively, to reach a final concentration of 3 or 7 μM, respectively. […] Preloading was stopped by chilling cells on ice for 5 min followed by the addition of 400 μL ice‐cold PBS. Cells were pelleted (300 g, 5 min, 4 °C), the supernatant was discarded, and the cell pellet was resuspended in ice‐cold PBS (150 μL). Until measurement, cells were kept on ice and in the dark. Immediately before cell fluorescence measurement by flow cytometry (BD Accuri C6 and BD FACSCalibur, Becton Dickinson, San Jose, CA, USA; MACSQuant, MiltenyiBiotec GmbH, BergischGladbach, Germany), 50 μL of 4′,6‐diamidin‐2‐phenylindole solution (DAPI, 4 μg mL^−1 in PBS) was added to gate out dead cells. 100 μM verapamil and 1 μM Ko143 were used as positive controls for P‐gp and BCRP inhibition, respectively. […]

P-gp / BCRP = target: T2, P-gp / BCRP (Homo sapiens, UniProt Q9UNQ0); experiment: as above; conditions: human, pH 7.4, probe daunorubicin (3 µM) for P-gp; mitoxantrone (7 µM) for BCRP; IC50 P-gp / IC50 BCRP; read-out: selectivity index (SI) P-gp/BCRP
T2 construct: expressed in transfected cells; host or cells: PLB985 human myeloid leukemia cells stably expressing BCRP (gift of B. Sarkadi and K. Nemet, Budapest)
T2 sequence (Q9UNQ0 whole entry): as above
Method: as §1, §2, §3

P-gp = target: T3, P-gp (Homo sapiens, UniProt P08183); experiment: P-gp inhibition: steady-state daunorubicin accumulation in P-gp-overexpressing CCRF VCR1000 cells (flow cytometry)
T3 construct: was obtained by stepwise selection of CCRF‐CEM in vincristine‐containing medium; endogenous in cells; host or cells: CCRF VCR1000 (vincristine-selected subline of CCRF-CEM human T-lymphoblasts; gift of V. Gekeler)
T3 sequence (P08183 whole entry): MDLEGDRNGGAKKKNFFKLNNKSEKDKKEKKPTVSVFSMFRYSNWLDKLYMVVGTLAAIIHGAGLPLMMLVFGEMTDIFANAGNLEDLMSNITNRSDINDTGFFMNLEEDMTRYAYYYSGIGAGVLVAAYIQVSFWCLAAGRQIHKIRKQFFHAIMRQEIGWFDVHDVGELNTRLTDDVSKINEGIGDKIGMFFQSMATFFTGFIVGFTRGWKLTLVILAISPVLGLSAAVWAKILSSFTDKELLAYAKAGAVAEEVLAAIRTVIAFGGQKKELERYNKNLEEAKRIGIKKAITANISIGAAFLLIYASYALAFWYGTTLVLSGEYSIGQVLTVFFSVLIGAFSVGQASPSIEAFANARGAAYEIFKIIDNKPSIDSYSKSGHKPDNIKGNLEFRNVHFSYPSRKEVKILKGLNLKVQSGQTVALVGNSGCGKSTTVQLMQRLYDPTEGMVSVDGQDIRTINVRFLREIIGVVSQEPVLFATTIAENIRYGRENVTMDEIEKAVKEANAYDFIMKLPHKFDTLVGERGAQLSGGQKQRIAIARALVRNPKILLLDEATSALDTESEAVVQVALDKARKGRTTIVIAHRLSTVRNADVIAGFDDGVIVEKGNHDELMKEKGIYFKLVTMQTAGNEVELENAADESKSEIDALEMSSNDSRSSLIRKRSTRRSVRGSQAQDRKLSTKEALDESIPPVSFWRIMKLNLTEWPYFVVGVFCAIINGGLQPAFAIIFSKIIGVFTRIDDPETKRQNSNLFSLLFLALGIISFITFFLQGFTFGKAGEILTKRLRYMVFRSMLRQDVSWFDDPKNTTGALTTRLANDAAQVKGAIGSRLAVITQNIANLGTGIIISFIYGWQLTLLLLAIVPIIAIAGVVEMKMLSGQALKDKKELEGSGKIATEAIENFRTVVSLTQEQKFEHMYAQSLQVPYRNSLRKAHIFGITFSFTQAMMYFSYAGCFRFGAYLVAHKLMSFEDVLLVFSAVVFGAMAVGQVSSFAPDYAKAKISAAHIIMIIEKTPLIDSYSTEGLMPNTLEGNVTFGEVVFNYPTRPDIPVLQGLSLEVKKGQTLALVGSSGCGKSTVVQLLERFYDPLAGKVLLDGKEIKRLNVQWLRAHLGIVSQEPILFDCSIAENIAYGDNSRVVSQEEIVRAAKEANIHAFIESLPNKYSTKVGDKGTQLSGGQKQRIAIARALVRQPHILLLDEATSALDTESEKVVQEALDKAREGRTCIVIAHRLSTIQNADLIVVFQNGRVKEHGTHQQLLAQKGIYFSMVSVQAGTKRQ
Method: as §1, §2, §3

[1] = Hill coefficient of IC50 measurement, mean ± SD of n experiments
[2] = IC50 below 10 μM considered active

COc1ccc(C(=O)CCc2ccccc2)c(OCCN2CC(=O)N3CCCC3C2=O)c1 (centres unmarked) [Compound 11 b, 2‐(2‐(5‐Methoxy‐2‐(3‐phenylpropanoyl)phenoxy)ethyl)‐hexahydropyrrolo[1,2‐a]pyrazine‐1,4‐dione]
IC50 (BCRP; BCRP IC50, mitoxantrone 7 μM, PLB985 BCRP cells, mean±SD, at least n=3 (11 a n=2)): 2.3 µM
Hill coefficient BCRP (BCRP; [1]): 1.1±0.2
in vitro classification as BCRP inhibitor (BCRP; [2]): inhibitors
fold lower IC50 value for BCRP than for P-gp (BCRP; ratio IC50 P-gp / IC50 BCRP): 2.7 fold
selectivity ratio (P-gp / BCRP): 2.7
Hill coefficient P-gp (P-gp; [1]): 1.5±0.1
in vitro classification as P-gp inhibitor (P-gp; [2]): inhibitors
IC50 (P-gp; daunorubicin 3 μM, CCRF VCR1000 cells, mean±SD, at least n=3): 6.2 ± 0.4 µM
